In experiment [1] the target is T1, fibrinogen receptor (glycoprotein IIb/IIIa) (Homo sapiens, UniProt P05106+P08514).
T1 construct: on intact, gel-filtered human blood platelets; from tissue; host or cells: gel-filtered blood platelets from human donor blood
The experiment in a line: inhibition of binding of 125I-fibrinogen to its receptor on intact, gel-filtered human blood platelets. The following applies: following stimulation with ADP (10 μM); read-out: Ki, ADP-stimulated (inhibition of the binding of 125I-fibrinogen). The protocol: (§1) The compounds are tested, in particular, for their ability to inhibit blood-platelet aggregation and the adherence of fibrinogen to blood platelets (gel-filtered blood platelets from human donor blood are used which are activated with ADP or thrombin), as well as for their in-vivo ability to inhibit blood-platelet aggregation and thrombosis.
The test is of the ability of the compounds according to the invention to inhibit the binding of fibrinogen to its receptor (glycoprotein IIb/IIIa) on intact, gel-filtered human blood platelets. The value given is the Ki value for inhibition of the binding of ^125 I-fibrinogen following stimulation with ADP (10 μM). (Literature: J. S. Bennett and G. Vilaire, J. Clin. Invest. 64 (1979), 1393-1401; E. Kornecki et al., J. Biol. Chem. 256 (1981), 5695-5701; G. A. Marguerie et al., J. Biol. Chem. 254 (1979), 5357-5363; G. A. Marguerie et al., J. Biol. Chem. 255 (1980), 154-161).

For experiment [2], the system named is gel-filtered human blood platelets. The experiment in a line: inhibition of aggregation of gel-filtered human blood platelets following stimulation with ADP or thrombin. In kind it is cell-based. The following applies: Platelet. The protocol: as §1
As a functional test, the ability is measured of the compounds according to the invention to inhibit the aggregation of gel-filtered human blood platelets following stimulation with ADP or thrombin. The value given is the IC50 value of the inhibition. (Literature: G. A. Marguerie et al., J. Biol. Chem. 254 (1979), 5357-5363).

Where [3] appears, read: read-out: ADP-stimulated IC50 (inhibition of platelet aggregation).
Setting [4] is: read-out: Thrombin-stimulated IC50 (inhibition of platelet aggregation).

The record followed here is patent publication US5681838A, “Substituted amino compounds, their preparation and their use as inhibitors of thrombocyte-aggregation” (Hoechst Aktiengesellschaft, priority 1993, dated 1997).

Read-outs that look alike come from different tables or passages of the source.

T1 sequence (P08514 32-887 limits assumed): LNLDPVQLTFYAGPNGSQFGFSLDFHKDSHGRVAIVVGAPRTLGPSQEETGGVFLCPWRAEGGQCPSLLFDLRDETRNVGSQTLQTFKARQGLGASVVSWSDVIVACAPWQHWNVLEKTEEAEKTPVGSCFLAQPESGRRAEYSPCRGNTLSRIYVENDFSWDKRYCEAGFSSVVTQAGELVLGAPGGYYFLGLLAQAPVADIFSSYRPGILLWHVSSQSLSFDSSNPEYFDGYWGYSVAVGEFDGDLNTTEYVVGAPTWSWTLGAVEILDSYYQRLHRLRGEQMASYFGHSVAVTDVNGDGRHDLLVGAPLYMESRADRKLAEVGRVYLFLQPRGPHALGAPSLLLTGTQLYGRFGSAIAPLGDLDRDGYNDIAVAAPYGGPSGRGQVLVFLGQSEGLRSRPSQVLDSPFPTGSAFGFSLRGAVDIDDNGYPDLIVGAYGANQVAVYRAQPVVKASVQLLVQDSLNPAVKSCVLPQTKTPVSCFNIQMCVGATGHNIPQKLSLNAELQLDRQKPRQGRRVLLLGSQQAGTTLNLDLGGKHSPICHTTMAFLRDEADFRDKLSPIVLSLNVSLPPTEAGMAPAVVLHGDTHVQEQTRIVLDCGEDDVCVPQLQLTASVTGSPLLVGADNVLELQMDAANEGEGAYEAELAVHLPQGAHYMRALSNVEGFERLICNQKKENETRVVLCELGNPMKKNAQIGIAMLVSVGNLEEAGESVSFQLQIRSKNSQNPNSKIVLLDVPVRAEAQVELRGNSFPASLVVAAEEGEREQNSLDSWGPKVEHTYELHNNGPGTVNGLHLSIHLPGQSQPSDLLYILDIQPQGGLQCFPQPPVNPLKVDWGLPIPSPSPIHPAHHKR
T1 sequence (P08514 891-1039 limits assumed): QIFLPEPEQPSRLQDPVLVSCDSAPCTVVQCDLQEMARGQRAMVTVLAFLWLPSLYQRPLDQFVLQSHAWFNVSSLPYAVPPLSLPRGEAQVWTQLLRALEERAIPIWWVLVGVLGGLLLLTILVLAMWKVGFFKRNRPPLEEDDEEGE
T1 sequence (P05106 27-788): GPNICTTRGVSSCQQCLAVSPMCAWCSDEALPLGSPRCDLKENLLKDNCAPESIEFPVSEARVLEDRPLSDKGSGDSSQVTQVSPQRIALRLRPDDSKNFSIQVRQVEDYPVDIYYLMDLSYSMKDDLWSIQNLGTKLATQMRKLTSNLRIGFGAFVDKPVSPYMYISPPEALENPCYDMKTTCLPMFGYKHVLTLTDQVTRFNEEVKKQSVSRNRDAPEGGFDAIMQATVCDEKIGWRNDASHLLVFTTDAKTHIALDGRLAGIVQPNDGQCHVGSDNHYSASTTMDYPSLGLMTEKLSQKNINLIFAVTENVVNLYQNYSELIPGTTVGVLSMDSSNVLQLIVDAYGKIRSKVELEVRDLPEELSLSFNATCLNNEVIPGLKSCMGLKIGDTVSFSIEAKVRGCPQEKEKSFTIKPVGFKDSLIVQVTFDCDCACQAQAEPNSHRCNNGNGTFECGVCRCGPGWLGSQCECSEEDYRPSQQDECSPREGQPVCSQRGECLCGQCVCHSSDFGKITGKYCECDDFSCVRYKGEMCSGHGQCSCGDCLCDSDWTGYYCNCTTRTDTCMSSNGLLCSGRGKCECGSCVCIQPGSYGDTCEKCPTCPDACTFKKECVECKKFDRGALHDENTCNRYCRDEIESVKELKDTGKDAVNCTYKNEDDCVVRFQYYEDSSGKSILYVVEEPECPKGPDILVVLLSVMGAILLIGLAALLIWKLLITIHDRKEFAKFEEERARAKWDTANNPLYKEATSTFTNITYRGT

Broadly, the Ki is a measure of affinity in units of concentration, obtained from inhibition or displacement. For orientation: IC50 means the point on the concentration scale where inhibition reaches its midpoint. `N=C(N)c1ccc(C=CC(=O)NCCCN(CC(=O)O)C(=O)NC(C(=O)O)c2ccccc2)cc1` (centres unmarked) [Example 1, (1-(3-(3-(4-(Aminoiminomethyl)phenyl)acryloylamino)propyl)-3-(hydroxycarbonylphenylmethyl)ureido)acetic acid acetate]: the Ki in experiment [1] was 0.42 µM. Moreover, the results for the IC50 in experiment [2] (setting [3]) and in experiment [2] (setting [4]) were 1.5 µM and 1 µM, respectively.

For the compound `N=C(N)c1ccc(CC2NC(=O)N(CCN(CC(=O)O)C(=O)OCC3c4ccccc4-c4ccccc43)C2=O)cc1` (centres unmarked) [Example 2, (2-(4-(4-(Aminoiminomethyl)benzyl)-2,5-dioxoimidazolidin-1-yl)ethyl)-(9-fluorenylmethoxycarbonyl)aminoacetic acid], the IC50 in experiment [2] (setting [3]) and in experiment [2] (setting [4]) was 20 µM each time.
